Data published in patent publication US20220026420A1, “MOLECULES AND METHODS FOR IMPROVED IMMUNODETECTION OF SMALL MOLECULES SUCH AS HISTAMINE” (PRESIDENT AND FELLOWS OF HARVARD COLLEGE, priority 2018, published 2022).
pKd: −log10 of the molar value.

How the values were obtained:
[1] = tested on: anti-histamine antibody; assay: Competitive histamine ELISA with PEG linkers on streptavidin plates, anti-IgG HRP detection; assay type: binding
Experimental: To identify an antibody that recognizes free histamine with improved (lower) binding affinities, we used the PEG-mono-histidine linker (Structure 1) as a target with antibodies that we previously screened with BSA-histamine, i.e., the antibodies listed in FIG. 3A. […] The monovalent histidine linker (25 μM) 86 was added for 1 hour, and then 5 μg ml^−1 anti-histamine antibody was incubated with different concentrations of soluble histamine for 1 hour at room temperature on a shaker 88. Finally, anti-IgG labelled HRP 810 was used to detect the bound antibodies.
The monovalent histidine linker (25 μM) 86 was added for 1 hour, and then 5 μg ml^−1 anti-histamine antibody was incubated with different concentrations of soluble histamine for 1 hour at room temperature on a shaker 88. Finally, anti-IgG labelled HRP 810 was used to detect the bound antibodies.
Histamine detection assay could be performed in two formats. The first format includes the immobilization of histamine conjugates to the solid support while the second format includes the immobilization of anti-histamine antibody on the solid support. For the immobilization of histamine conjugates the immobilization sample was prepared in 0.2 M carbonate-bicarbonate buffer (pH 9.4). Immobilisation samples herein refers to BSA-histamine, Streptavidin, and not limited to BSA-Histidine Samples. A high binding polystyrene 96 well ELISA plate was coated with 100 microliters of immobilization sample and the plates were incubated overnight at 4° C. Each well was then washed thrice with 0.01M phosphate-buffered saline with 0.05% Tween 20 (pH 7.4). To each well was then added 250 microliters 1% BSA solution prepared in 0.01M phosphate-buffered saline with 0.05% Tween 20 (pH 7.4) for 1 hour at ambient temperature. Each well was then washed three times with 0.01M phosphate-buffered saline with 0.05% Tween 20 (pH 7.4). For Streptavidin coated plates, to each well was then added 100 microliters of linkers prepared in 0.1% BSA in 0.01M phosphate-buffered saline with 0.05% Tween 20 (pH 7.4) as described in the other sections for 2 hours at ambient temperature on a shaker at 260 rpm. Each well was then washed three times with 0.01M phosphate-buffered saline with 0.05% Tween 20 (pH 7.4). The plate was then incubated with 50 microlitres of different concentration of free histamine and co-incubated with anti-histamine antibody for 1 hour at ambient temperature. […]. Anti-histamine antibody was prepared in 0.1% BSA in 0.01M phosphate-buffered saline with 0.05% Tween 20 (pH 7.4). After the incubation, each well was washed three times with 0.01M phosphate-buffered saline with 0.05% Tween 20 (pH 7.4). […]

[2] = tested on: anti-histamine antibody conjugated to HRP; assay: Refined 5 min histamine ELISA with anti-histamine antibody conjugated to HRP; assay type: binding; details: for starting signal compared to PEG-mono histidine: 5 min assay; for pKd: Hill equation fit without the 0 nM histamine data point, read-out: dissociation constant (Kd)
Experimental: The assay was further refined to decrease the total assay time. This was achieved by conjugating the anti-histamine antibody to the detection enzyme HRP 192 as depicted by FIG. 19. The resultant assay could be completed within 5 min. For the present study, only PEG-mono histidine and PEG-dual histidine were used. FIG. 20A and FIG. 20B show the results obtained from the study.
The data points obtained were fitted using a Hill equation which further assisted to characterize the linkers under study.
Histamine detection assay could be performed in two formats. The first format includes the immobilization of histamine conjugates to the solid support while the second format includes the immobilization of anti-histamine antibody on the solid support. For the immobilization of histamine conjugates the immobilization sample was prepared in 0.2 M carbonate-bicarbonate buffer (pH 9.4). Immobilisation samples herein refers to BSA-histamine, Streptavidin, and not limited to BSA-Histidine Samples. A high binding polystyrene 96 well ELISA plate was coated with 100 microliters of immobilization sample and the plates were incubated overnight at 4° C. Each well was then washed thrice with 0.01M phosphate-buffered saline with 0.05% Tween 20 (pH 7.4). To each well was then added 250 microliters 1% BSA solution prepared in 0.01M phosphate-buffered saline with 0.05% Tween 20 (pH 7.4) for 1 hour at ambient temperature. Each well was then washed three times with 0.01M phosphate-buffered saline with 0.05% Tween 20 (pH 7.4). For Streptavidin coated plates, to each well was then added 100 microliters of linkers prepared in 0.1% BSA in 0.01M phosphate-buffered saline with 0.05% Tween 20 (pH 7.4) as described in the other sections for 2 hours at ambient temperature on a shaker at 260 rpm. Each well was then washed three times with 0.01M phosphate-buffered saline with 0.05% Tween 20 (pH 7.4). The plate was then incubated with 50 microlitres of different concentration of free histamine and co-incubated with anti-histamine antibody for 1 hour at ambient temperature. […]. Anti-histamine antibody was prepared in 0.1% BSA in 0.01M phosphate-buffered saline with 0.05% Tween 20 (pH 7.4). After the incubation, each well was washed three times with 0.01M phosphate-buffered saline with 0.05% Tween 20 (pH 7.4). The plates were then incubated with a secondary antibody labelled with HRP prepared in 0.1% BSA in 0.01M phosphate-buffered saline with 0.05% Tween 20 (pH 7.4) in for 1 hour at ambient temperature. After the incubation, each well was washed three times with 0.01M phosphate-buffered saline with 0.05% Tween 20 (pH 7.4). Each well was then incubated with TMB turbo (150 microlitres) for 30 minute (measurement at a wavelength of 650 nm) followed by addition of 150 microlitres of 0.16 M Sulphuric acid to stop the solution in some examples where measurements are taken at a wavelength of 450 nm. […] Independent incubation time is described in each section.

[3] = target: anti-histamine antibody; assay: 5-minute electrochemical assay in spiked human plasma samples; assay type: binding
From the text: The Immuno-assay developed on the ELISA plates using PEG-dual Histidine was translated to an electrochemical platform to develop a biosensor for free histamine detection in human plasma samples.

[4] = tested on: anti-histamine antibody; assay: Histamine ELISA in spiked human plasma samples, conventional plate versus BSA-glutaraldehyde surface chemistry; assay type: binding; details: FIG. 28
Experimental: In order for the assay design to be used for clinical applications for the rapid quantification of allergy severity, using clinical samples (e.g. human plasma, serum) is one of the most critical aspects. An ELISA plate was prepared using conventional means as shown in FIG. 19 using PEG-dual-histidine. In an alternative approach, an ELISA plate was prepared using the BSA-glutaraldehyde surface chemistry as previously described in international Application No. PCT/US2018/044076, the content of which is herein incorporated by reference. In contrast to the previously described system, no nanoparticles were used. Therefore BSA can be denatured and combined with glutaraldehyde and used to coat ELISA wells. This is then activated using and (1-ethyl-3-(3-dimethylaminopropyl)carbodiimide hydrochloride)/[…] (EDC/NHS) to link to streptavidin which allows attachment of biotin-PEG-dual-histidine. It can be clearly seen full blocking of the ELISA plate when human plasma samples are used for histamine detection. […] As per to date, no method exists to detect histamine in less than 10 minutes.

[5] = tested on: anti-histamine antibody conjugated to HRP; assay: ELISA affinity of anti-histamine antibody-HRP to different linkers, without free histamine; assay type: binding; details: 5 minutes, no free histamine, compared to PEG-mono-histidine linker, FIG. 26
From the text: FIG. 26 is a plot of a comparison of PEG-mono histamine with PEG-mono histidine using streptavidin coated ELISA plates. As illustrated, the data presents the affinity of anti-histamine antibody conjugated to HRP to different histamine conjugate linkers. As in the previous studies, streptavidin modified plates were used, here to study PEG-Mono-Histamine, PEG-mono-Histidine, PEG-phenyl-histidine and PEG-glutamate-histidine. The assay format was as per FIG. 19 without free histamine in the solution. The modified plates were then exposed to different concentrations of anti-histamine antibodies conjugated with HRP for 5 minutes.

[6] = tested on: anti-histamine antibody; assay: Electrochemical biosensor for free histamine detection; assay type: binding; details: gold electrode, FIG. 12B
Experimental: The Immuno-assay developed on the ELISA plates was translated to an electrochemical platform to provide a biosensor for free histamine detection. The lowest concentration tested with the sensor was 2.7 nM which generated a statistically significant difference from the background. […] FIG. 12B is a semi-log plot showing the calibration curves for the electrochemical sensor using the structure depicted by FIG. 12A. Detection occurs as free […] competes and displaces Biotin-PEG6-Histidine conjugate from the anti-histamine.

[7] = tested on: Monoclonal Anti-Dinitrophenyl antibody conjugated with HRP; assay: Competitive DNP ELISA with DNP linkers on streptavidin plates; assay type: binding, mouse; details: FIG. 25
Experimental: Monoclonal Anti-Dinitrophenyl antibody produced in mouse (D8406) and 2,4-Dinitrophenol (D198501 was purchased from Sigma. The anti-DNP antibody was directly conjugated with HRP using a commercial kit e.g., LIGHTENING-LINK™ Antibody Labeling Kits available from Novus Biolgicals. Once again ELISA plate coated with streptavidin was used as described in FIG. 19. After blocking, the plates were incubated with the respective linker. Different concentrations of DNP with anti-DNP antibody was co-incubated for 45 minutes at room temperature in the dark. After incubation, the wells were washed 3 times with 200 μL PBST and incubated with 150 μL TMB for 10 minutes. Finally, 150 μL of stop solution was added and absorbance measurement was observed. FIG. 25 is a plot showing ELISA results with Mono-DNP linker (blue) versus PEG-Dual-DNP linker (red). As with the dual histadine linkers, a clear difference could be seen between single and dual DNP linker. There is nearly a 30% increase in the signal intensity from single to dual DNP molecule.

[8] = tested on: anti-histamine antibody labelled with HRP; assay: 5 min histamine ELISA with BSA-PEG-mono-Histidine conjugate coated plates; assay type: binding; details: 5 min incubation, FIG. 23
Experimental: The thiol-PEG-mono Histidine linker was attached to BSA as follows. A 1 mL aliquot of maleimide conjugation buffer obtained from Thermo scientific was added to 10 mg of purified thiol-PEG-mono Histidine linker. Subsequently, the 1 mL solution containing the thiol-PEG-mono Histidine was added to 5 mg of commercially available BSA-maleimide substrate and allowed to react at room temperature for 4 h to provide the histidine-PEG-BSA conjugate. The histidine-PEG-BSA conjugate was purified using a 10K spin column. The histidine-PEG-BSA conjugate obtained was then used to modify the ELISA plate wells and assay was performed using a 5 min incubation time. […] The steps include coating the plates with BSA-PEG-Histidine conjugate 222, blocking with BSA 224, and incubation with HRP labeled anti-histamine antibody and free histamine 226. FIG. 23 presents the results obtained and compared to BSA-histamine (commercial, FIG. 5). […] The used and anti-histamine antibody labelled with HRP in a 5 min incubation time assay.

## NC(=O)C(CCCCNC(=O)C(CCCCNC(=O)C(N)Cc1c[nH]cn1)NC(=O)C(N)Cc1c[nH]cn1)NC(=O)CCOCCOCCOCCOCCNC(=O)CCCCC1SC[C@H]2NC(=O)N[C@@H]12 (stereo partly drawn) [PEG-dual Histidine, Biotin-PEG-Dual-Histidine]
[1]; 5 min incubation of anti-histamine antibody, FIG. 18A
  starting signal compared to PEG-mono-histidine: increased starting signal
[1]; FIG. 11
  antibody binding specificity and sensitivity compared to the single histidine conjugate: significant improvement
[2]
  starting signal compared to PEG-mono histidine: higher starting signal
[2]; FIG. 21
  dynamic range compared to PEG-mono histidine: broader dynamic range
  pKd: 6.55
[3]; Hill equation fit without the 0 nM histamine data point, human plasma
  pKd: 8.17
[3]; spiked human plasma, FIG. 24
  histamine concentration generating a statistically significant current change: 3.75 nM
[4]; BSA-glutaraldehyde surface chemistry, under 10-minute assay
  histamine detection in spiked human plasma: clear detection of histamine
[4]; ELISA plate prepared by conventional means
  histamine detection in spiked human plasma: full blocking

## NC(=O)C(CCCCNC(=O)C(CCC(=O)O)CC(=O)C(N)Cc1cnc[nH]1)NC(=O)CCOCCOCCOCCOCCNC(=O)CCCCC1SC[C@H]2NC(=O)N[C@@H]12 (stereo partly drawn) [PEG-glutamate-histidine, Biotin-PEG-Glutamate-Histadine]
[5]
  binding affinity of anti-histamine antibody: nearly no binding

## NC(Cc1c[nH]cn1)C(=O)NCCOCCOCCOCCOCCOCCOCCNC(=O)CCCCC1SC[C@H]2NC(=O)N[C@@H]12 (stereo partly drawn) [PEG-mono Histidine, Biotin-PEG-Mono-Histidine]
[1]; FIG. 10
  signal enhancement and sensitivity versus immobilized BSA-histamine: significantly improved
[6]
  lowest concentration tested generating a statistically significant difference from the background: 2.7 nM
[2]; FIG. 21
  pKd: 6.35

## NC(=O)C(CCCCNC(=O)C(Cc1ccccc1)NC(=O)C(N)Cc1cnc[nH]1)NC(=O)CCOCCOCCOCCOCCNC(=O)CCCCC1SC[C@@H]2NC(=O)N[C@H]12 (stereo partly drawn) [PEG-phenyl-histidine, Biotin-PEG-Phenyl-Histadine]
[2]; 5-minute histamine assay, FIG. 27
  sensitivity of the assay compared to PEG-mono-histidine: no significant difference
[2]
  starting signal compared to PEG-mono histidine: lower starting signal
[5]
  binding affinity of anti-histamine antibody: decreased significantly

## NC(=O)C(CCCCNC(=O)C(CCCCNc1cc([N+](=O)[O-])ccc1[N+](=O)[O-])Nc1cc([N+](=O)[O-])ccc1[N+](=O)[O-])NC(=O)CCOCCOCCOCCOCCNC(=O)CCCCC1SC[C@H]2NC(=O)N[C@@H]12 (stereo partly drawn) [dual DNP, Biotin-PEG-Dual-DNP]
[7]; 45 min co-incubation
  increase in the signal intensity from single to dual DNP molecule: ~30%
[7]
  dynamic range compared to single DNP linker: broader dynamic range

## PEG-mono Histidine modified BSA: thiol-PEG-mono Histidine linker (Structure 5) attached to commercially available BSA-maleimide
[8]
  sensitivity towards free histamine compared to BSA-histamine (commercial): increased sensitivity

## biotin-EG6-histamine [PEG-mono-histamine]
[1]; concentration range studied, streptavidin coated plates, FIG. 15
  detection of free histamine: could not be detected
[5]
  binding affinity of anti-histamine antibody: high binding affinity
